Molecular target: T1, BRM (Homo sapiens, UniProt P51531)
T1 construct: In-Cell Western Screen of BRM Degradation in SW1573 Cells; endogenous in cells; host or cells: SW1573
Test: In-cell Western screen of BRM degradation in SW1573 cells (Dmax and DC50)
Type: cell-based
Conditions: BRM degradation, SW1573 cells; for DC50: read-out: DC50; for Dmax: tested at the top concentration of between 0.3 and 10 μM, read-out: Dmax (%) (% degraded)
Procedure, shortened: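 BRM levels were read by LI-COR in-cell Western after two-channel (800/680 nm) immunostaining of fixed, Triton-permeabilised SW1573 cells.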

T1 sequence (P51531 whole entry): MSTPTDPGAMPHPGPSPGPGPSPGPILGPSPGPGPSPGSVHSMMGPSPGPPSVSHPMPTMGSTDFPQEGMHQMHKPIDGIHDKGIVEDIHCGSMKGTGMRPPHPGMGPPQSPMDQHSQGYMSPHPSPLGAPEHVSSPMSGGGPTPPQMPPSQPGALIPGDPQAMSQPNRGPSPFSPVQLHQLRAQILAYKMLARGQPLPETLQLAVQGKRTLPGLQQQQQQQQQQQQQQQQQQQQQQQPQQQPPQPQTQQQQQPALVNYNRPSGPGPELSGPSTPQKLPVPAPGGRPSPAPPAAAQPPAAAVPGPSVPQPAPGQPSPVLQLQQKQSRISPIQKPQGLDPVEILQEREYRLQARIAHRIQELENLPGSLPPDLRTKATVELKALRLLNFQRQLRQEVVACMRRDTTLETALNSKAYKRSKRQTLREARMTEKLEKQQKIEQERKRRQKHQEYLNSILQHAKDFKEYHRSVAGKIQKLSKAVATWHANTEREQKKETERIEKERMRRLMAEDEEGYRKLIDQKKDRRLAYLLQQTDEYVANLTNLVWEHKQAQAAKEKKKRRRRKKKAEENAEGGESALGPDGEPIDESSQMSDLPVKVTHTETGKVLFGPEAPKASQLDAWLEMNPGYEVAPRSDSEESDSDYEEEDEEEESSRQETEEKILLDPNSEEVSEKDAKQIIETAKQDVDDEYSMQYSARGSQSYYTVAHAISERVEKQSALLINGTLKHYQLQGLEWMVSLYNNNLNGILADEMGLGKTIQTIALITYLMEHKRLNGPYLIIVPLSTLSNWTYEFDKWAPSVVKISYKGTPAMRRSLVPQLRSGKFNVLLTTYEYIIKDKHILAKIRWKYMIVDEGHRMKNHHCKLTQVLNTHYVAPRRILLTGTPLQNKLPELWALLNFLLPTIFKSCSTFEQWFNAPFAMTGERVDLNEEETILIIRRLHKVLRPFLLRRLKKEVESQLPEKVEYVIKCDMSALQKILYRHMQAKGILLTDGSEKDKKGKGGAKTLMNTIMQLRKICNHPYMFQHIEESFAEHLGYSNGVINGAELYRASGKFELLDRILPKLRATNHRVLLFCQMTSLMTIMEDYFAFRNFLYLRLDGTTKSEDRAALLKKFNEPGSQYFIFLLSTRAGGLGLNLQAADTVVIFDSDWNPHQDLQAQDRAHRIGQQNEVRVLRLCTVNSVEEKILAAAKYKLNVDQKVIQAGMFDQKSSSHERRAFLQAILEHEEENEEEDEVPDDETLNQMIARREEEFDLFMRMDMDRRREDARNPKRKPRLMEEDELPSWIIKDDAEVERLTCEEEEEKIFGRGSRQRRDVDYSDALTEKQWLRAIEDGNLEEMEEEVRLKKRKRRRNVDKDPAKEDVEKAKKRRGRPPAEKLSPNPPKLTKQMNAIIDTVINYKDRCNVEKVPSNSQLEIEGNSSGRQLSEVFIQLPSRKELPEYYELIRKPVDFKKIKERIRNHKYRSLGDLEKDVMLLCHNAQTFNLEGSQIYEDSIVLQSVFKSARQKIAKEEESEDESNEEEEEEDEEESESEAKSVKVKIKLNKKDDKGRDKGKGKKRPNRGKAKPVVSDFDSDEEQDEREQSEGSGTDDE

| SMILES | DC50 [nM] | Dmax [%] |
| --- | --- | --- |
| Cc1ncsc1-c1ccc([C@H](C)NC(=O)[C@@H]2C[C@@H](O)CN2C(=O)[C@H](c2cc(CCCN3CCC(O[C@H]4C[C@H](Oc5cc(N6C7CCC6CN(c6cc(-c8ccccc8O)nnc6N)C7)ccn5)C4)CC3)no2)C(C)C)cc1 [compound 190, (2S,4R)-1-((2S)-2-(3-(3-(4-((1r,3S)-3-((4-(3-(3-amino-6-(2-hydroxyphenyl)pyridazin-4-yl)-3,8-diazabicyclo[3.2.1]octan-8-yl)pyridin-2-yl)oxy)cyclobutoxy)piperidin-1-yl)propyl)isoxazol-5-yl)-3-methylbutanoyl)-4-hydroxy-N-((S)-1-(4-(4-methylthiazol-5-yl)phenyl)ethyl)pyrrolidine-2-carboxamide] | > 30 |  |
| Cc1ncsc1-c1ccc([C@H](C)NC(=O)[C@@H]2C[C@@H](O)CN2C(=O)[C@@H](c2cc(CCCN3CCC(O[C@H]4C[C@H](Oc5cc(N6C7CCC6CN(c6cc(-c8ccccc8O)nnc6N)C7)ccn5)C4)CC3)no2)C(C)C)cc1 [compound 191, (2S,4R)-1-((2R)-2-(3-(3-(4-((1r,3R)-3-((4-(3-(3-amino-6-(2-hydroxyphenyl)pyridazin-4-yl)-3,8-diazabicyclo[3.2.1]octan-8-yl)pyridin-2-yl)oxy)cyclobutoxy)piperidin-1-yl)propyl)isoxazol-5-yl)-3-methylbutanoyl)-4-hydroxy-N-((S)-1-(4-(4-methylthiazol-5-yl)phenyl)ethyl)pyrrolidine-2-carboxamide] | < 2.5 | > 75 |
| Cc1ncsc1-c1ccc([C@H](C)NC(=O)[C@@H]2C[C@@H](O)CN2C(=O)C(c2cc(OCCN3CCN(CCO[C@H]4C[C@H](OCCN5CCOC6(CCN(c7cc(-c8ccccc8O)nnc7N)CC6)C5)C4)CC3)no2)C(C)C)cc1 (stereo partly drawn) [compound 192, (2S,4R)-1-(2-(3-(2-(4-(2-((1r,3r)-3-(2-(9-(3-amino-6-(2-hydroxyphenyl)pyridazin-4-yl)-1-oxa-4,9-diazaspiro[5.5]undecan-4-yl)ethoxy)cyclobutoxy)ethyl)piperazin-1-yl)ethoxy)isoxazol-5-yl)-3-methylbutanoyl)-4-hydroxy-N-((S)-1-(4-(4-methylthiazol-5-yl)phenyl)ethyl)pyrrolidine-2-carboxamide] | < 2.5 | > 75 |
| Cc1cnn(C)c1-c1ccc([C@H](C)NC(=O)[C@@H]2C[C@@H](O)CN2C(=O)[C@H](c2cc(OCCN3CCN(CCOc4cc(N5C6CCC5CN(c5cc(-c7ccccc7O)nnc5N)C6)ccn4)CC3)no2)C(C)C)cc1 [compound 193, (2S,4R)-1-((2S)-2-(3-(2-(4-(2-((4-(3-(3-amino-6-(2-hydroxyphenyl)pyridazin-4-yl)-3,8-diazabicyclo[3.2.1]octan-8-yl)pyridin-2-yl)oxy)ethyl)piperazin-1-yl)ethoxy)isoxazol-5-yl)-3-methylbutanoyl)-N-((S)-1-(4-(1,4-dimethyl-1H-pyrazol-5-yl)phenyl)ethyl)-4-hydroxypyrrolidine-2-carboxamide] | > 30 | > 75 |
| Cc1ncsc1-c1ccc([C@H](C)NC(=O)[C@@H]2C[C@@H](O)CN2C(=O)[C@H](c2cc(N3CCN(CCN4CCC(O[C@H]5C[C@H](Oc6cc(N7C8CCC7CN(c7cc(-c9ccccc9O)nnc7N)C8)ccn6)C5)CC4)CC3)no2)C(C)C)cc1 [compound 195, (2S,4R)-1-((2S)-2-(3-(4-(2-(4-((1r,3r)-3-((4-(3-(3-amino-6-(2-hydroxyphenyl)pyridazin-4-yl)-3,8-diazabicyclo[3.2.1]octan-8-yl)pyridin-2-yl)oxy)cyclobutoxy)piperidin-1-yl)ethyl)piperazin-1-yl)isoxazol-5-yl)-3-methylbutanoyl)-4-hydroxy-N-((S)-1-(4-(4-methylthiazol-5-yl)phenyl)ethyl)pyrrolidine-2-carboxamide] | > 30 | > 75 |
| Cc1ncsc1-c1ccc([C@H](C)NC(=O)[C@@H]2C[C@@H](O)CN2C(=O)[C@H](c2cc(CCCOCCOCCOCCn3cc(-c4cc(-c5ccccc5O)nnc4N)cn3)no2)C(C)C)cc1 [compound 196, (2S,4R)-1-((S)-2-(3-(3-(2-(2-(2-(4-(3-amino-6-(2-hydroxyphenyl)pyridazin-4-yl)-1H-pyrazol-1-yl)ethoxy)ethoxy)ethoxy)propyl)isoxazol-5-yl)-3-methylbutanoyl)-4-hydroxy-N-((S)-1-(4-(4-methylthiazol-5-yl)phenyl)ethyl)pyrrolidine-2-carboxamide] | > 30 | > 75 |
| Cc1ncsc1-c1ccc([C@H](C)NC(=O)[C@@H]2C[C@@H](O)CN2C(=O)[C@H](c2cc(OCCN3CCN(CCC#CCn4cc(-c5cc(-c6ccccc6O)nnc5N)cn4)CC3)no2)C(C)C)cn1 [compound 197, (2S,4R)-1-((S)-2-(3-(2-(4-(5-(4-(3-amino-6-(2-hydroxyphenyl)pyridazin-4-yl)-1H-pyrazol-1-yl)pent-3-yn-1-yl)piperazin-1-yl)ethoxy)isoxazol-5-yl)-3-methylbutanoyl)-4-hydroxy-N-((S)-1-(6-(4-methylthiazol-5-yl)pyridin-3-yl)ethyl)pyrrolidine-2-carboxamide] | > 30 |  |
| Cc1ncsc1-c1ccc([C@H](C)NC(=O)[C@@H]2C[C@@H](O)CN2C(=O)[C@H](c2onc(OCCN3CCN(CCOc4cc(N5C6CCC5CN(c5cc(-c7ccccc7O)nnc5N)C6)ccn4)CC3)c2F)C(C)C)cc1 [compound 198, (2S,4R)-1-((2S)-2-(3-(2-(4-(2-((4-(3-(3-amino-6-(2-hydroxyphenyl)pyridazin-4-yl)-3,8-diazabicyclo[3.2.1]octan-8-yl)pyridin-2-yl)oxy)ethyl)piperazin-1-yl)ethoxy)-4-fluoroisoxazol-5-yl)-3-methylbutanoyl)-4-hydroxy-N-((S)-1-(4-(4-methylthiazol-5-yl)phenyl)ethyl)pyrrolidine-2-carboxamide] | 10 to 30 | > 75 |
| Cc1ncsc1-c1ccc([C@H](CO)NC(=O)[C@@H]2C[C@@H](O)CN2C(=O)[C@@H](c2cc(OCCN3CCC(O[C@H]4C[C@H](Oc5cc(N6C7CCC6CN(c6cc(-c8ccccc8O)nnc6N)C7)ccn5)C4)CC3)no2)C(C)C)cc1 [compound 199, (2S,4R)-1-((2R)-2-(3-(2-(4-((1r,3R)-3-((4-(3-(3-amino-6-(2-hydroxyphenyl)pyridazin-4-yl)-3,8-diazabicyclo[3.2.1]octan-8-yl)pyridin-2-yl)oxy)cyclobutoxy)piperidin-1-yl)ethoxy)isoxazol-5-yl)-3-methylbutanoyl)-4-hydroxy-N-((R)-2-hydroxy-1-(4-(4-methylthiazol-5-yl)phenyl)ethyl)pyrrolidine-2-carboxamide] | < 2.5 | > 75 |
| Cc1ncsc1-c1ccc([C@H](CO)NC(=O)[C@@H]2C[C@@H](O)CN2C(=O)[C@H](c2cc(OCCN3CCC(O[C@H]4C[C@H](Oc5cc(N6C7CCC6CN(c6cc(-c8ccccc8O)nnc6N)C7)ccn5)C4)CC3)no2)C(C)C)cc1 [compound 200, (2S,4R)-1-((2S)-2-(3-(2-(4-((1r,3S)-3-((4-(3-(3-amino-6-(2-hydroxyphenyl)pyridazin-4-yl)-3,8-diazabicyclo[3.2.1]octan-8-yl)pyridin-2-yl)oxy)cyclobutoxy)piperidin-1-yl)ethoxy)isoxazol-5-yl)-3-methylbutanoyl)-4-hydroxy-N-((R)-2-hydroxy-1-(4-(4-methylthiazol-5-yl)phenyl)ethyl)pyrrolidine-2-carboxamide] | 2.5 to 10 | > 75 |

Reference: US12539292B2, “BRM targeting compounds and associated methods of use” (Arvinas Operations, Inc., priority 2018, dated 2026)
